In patent US20120045515A1, “HOLLOW SILICA PARTICLE WITH A POLYMER THEREON” (priority 2009, published 2012):
Converted amounts (≈) assume the structure as drawn.

Tests used:
[1] = system: MCF-7 cells; assay: In vitro cytotoxicity, MTT assay, in MCF-7 cells; format: cell-based; settings: Homo sapiens, MCF7, incubation for 72 h
Protocol: (§1) Cytotoxicity of pure PTX, PEG-g-hollow silica vesicles, and PTX loaded PEG-g-hollow silica vesicles was evaluated in MCF-7 cell lines and U-87 MG cell lines. Viability of the cells was assessed by the standard thiazolyl blue [3-(4,5-dimethyliazolyl-2)-2,5-diphenyl tetrazolium bromide] (MTT) assay. This colorimetric assay allows determination of the number of viable cells through the metabolic activity of the cells.
(§2) The cancer cells were seeded in 96-well plates with a seeding density 10,000 cells/well and were cultured in DMEM supplemented with 10% FBS and 1% penicillin/streptomycin solution in an incubator at 37° C., 5% CO2, and 95% relative humidity. The cells were allowed to adhere to the well bottom upon overnight incubation. Then the medium was replaced with the sample solutions of different concentrations. Meanwhile, wells containing only cell culture medium were prepared as untreated controls. At the predetermined time, the medium containing samples was aspirated and the wells were washed with 1×PBS solution for two times to removed non-internalized sample. […] The absorbance intensity of the solution was then quantified spectrophotometrically using a microplate reader (TECAN SpectraFluor Plus) at 570 nm. […]
(§3) where Abssample was the absorbance for the cells treated with the samples, while Abscontrol was the absorbance for the untreated control cells. […]

[2] = system: U-87 MG cells; assay: In vitro cytotoxicity, MTT assay, in U-87 MG cells; format: cell-based; settings: Homo sapiens, incubation for 72 h
Protocol: as §1, §2, §3

[3] = Release profile of paclitaxel by dialysis in 1×PBS buffer at 37° C., HPLC; format: physicochemical; settings: after 330 h, 1×PBS buffer solution
Protocol: In a typical process, 0.7 mg of paclitaxel loaded PEG-graft-hollow silica was dispersed in 3 ml of 1×PBS buffer solution under ultrasonication for 2 h at a temperature below 30° C. The solution was transferred into a dialysis tube with a molecular weight cutting of 10 000. The dialysis tube was placed into a conical flask containing 40 ml of 1×PBS buffer solution. The conical flask was kept in a water bath at 37° C. and was stirred at 100 rpm. The outside buffer solution was exchanged with a fresh buffer solution at a predetermined time interval to maintain a sink condition. The released paclitaxel was extracted from the drawn buffer solution using 4 ml of dichloromethane. After shaking and setting down, the dichloromethane solution was collected. After chloromethane was evaporated at room temperature, the solid reconstituted in 2 mL of acetonitrile/water (50:50; v/v) for HPLC measurement to determine PTX amounts.
To measure the release profile of free PTX, 2 mg of PTX was firstly dissolved in 4 mL methanol to get a solution of a concentration of 0.5 mg/mL. After ultrasonication for 40 min, 0.4 mL of the solution was taken out and was dried by evaporating methanol. The solid was dissolved in 3 mL of 1×PBS solution (pH 7.4), and the release profile was monitored.

[4] = Saturated solubility of PTX in methanol; format: physicochemical; settings: organic solvent or mixture, saturated solution in methanol

PTX released [3]: 5%
solubility [4]: 50 mg/mL (≈ 58600 µM)
Structure (SMILES): CC(=O)O[C@H]1C(=O)[C@@]2(C)[C@H]([C@H](OC(=O)c3ccccc3)[C@]3(O)C[C@H](OC(=O)[C@H](O)[C@@H](NC(=O)c4ccccc4)c4ccccc4)C(C)=C1C3(C)C)[C@]1(OC(C)=O)CO[C@@H]1C[C@@H]2O [free PTX, paclitaxel]
IC50 [1]: 0.1 µg/mL (≈ 0.117 µM)
IC50 [2]: 0.073 µg/mL (≈ 0.0855 µM)
